Values of other authors as cited in patent US10015963B2, “Microemulsions of lipidated glycines and phenoxy ethanol for preservation of personal care products” (GALAXY SURFACTANTS LTD., priority 2014, dated 2018).

How the values were obtained:
[1] = carboxyl group
[2] = at room temperature

CCCCCCCC(=O)NCC(=O)O [capryloyl glycine, N-capryloyl glycine]
pKa [1]: 4.05

OCCOc1ccccc1 [phenoxy ethanol, 2-phenoxy ethanol]
phenoxy ethanol solubilized in water [2]: 2.3%
